Data reported in patent publication US5438056A (priority 1993, dated 1995).
pIC50: −log10 of the molar value. Where two headings read alike, the source gives them in different places.

Assays:
[1] = molecular target: cholesterol ester hydrolase (Homo sapiens, UniProt P19835); assay: biochemical
[2] = system: cholesterol absorption; assay: animal or person; assay type: in vivo, normal rat
[3] = Rattus norvegicus, po, 6 h, read-out: % Decrease ^14 C Chol. Absorption at 6 hr in normal rat

Sequence of cholesterol ester hydrolase (P19835 21-753): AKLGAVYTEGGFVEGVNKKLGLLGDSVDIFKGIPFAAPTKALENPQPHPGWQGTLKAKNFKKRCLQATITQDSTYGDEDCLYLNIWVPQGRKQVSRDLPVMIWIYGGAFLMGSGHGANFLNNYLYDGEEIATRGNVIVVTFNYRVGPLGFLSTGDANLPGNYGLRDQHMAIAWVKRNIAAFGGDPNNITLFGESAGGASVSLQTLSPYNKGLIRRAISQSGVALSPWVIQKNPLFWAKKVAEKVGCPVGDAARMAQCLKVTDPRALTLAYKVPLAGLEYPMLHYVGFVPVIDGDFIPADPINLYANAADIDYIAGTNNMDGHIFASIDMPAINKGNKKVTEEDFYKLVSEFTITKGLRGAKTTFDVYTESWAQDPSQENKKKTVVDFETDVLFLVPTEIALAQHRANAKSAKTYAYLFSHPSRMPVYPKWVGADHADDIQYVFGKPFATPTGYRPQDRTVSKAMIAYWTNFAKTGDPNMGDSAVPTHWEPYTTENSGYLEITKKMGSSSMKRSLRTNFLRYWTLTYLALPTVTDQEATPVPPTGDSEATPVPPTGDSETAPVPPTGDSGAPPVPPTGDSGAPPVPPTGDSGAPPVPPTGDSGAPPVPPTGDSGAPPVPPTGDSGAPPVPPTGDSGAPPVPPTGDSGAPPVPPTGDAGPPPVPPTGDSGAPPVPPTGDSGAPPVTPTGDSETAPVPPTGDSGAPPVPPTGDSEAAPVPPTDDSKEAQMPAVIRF

SMILES | pIC50 [1] | inhibition in vivo at 100 mg/kg [2, 3] | further results
CCCCCCCCNC(=O)ON=C(C1=CC(=O)C(C)(c2ccc(Cl)cc2)O1)c1ccccc1 (centres unmarked) [Example 9, 2-(4-Chlorophenyl)-2-methyl-5-[[[[(octylamino)carbonyl]oxy]imino]phenylmethyl]-3(2H)-furanone] | 5.58 | 62% | –
CCCCCCCCNC(=O)ON=C(C1=CC(=O)C(C)(c2ccc(C(C)(C)C)cc2)O1)c1ccccc1 (centres unmarked) [Example 10, 2-[4-(1,1-Dimethylethyl)phenyl]-2-methyl-5-[[[[(octylamino)carbonyl]oxy]imino]phenylmethyl]-3(2H)-furanone] | 4.90 | 46% | –
CCCCC/C=C/C/C=C/CCCCCCCCNC(=O)ON=C(C1=CC(=O)C(C)(C)O1)c1ccccc1 [Example 6, 2,2-Dimethyl-5-[[[[[(E,E)-9, 12-octadecadienylamino]carbonyl]oxy]imino]phenylmethyl]-3(2H)-furanone] | 5.57 | – | inhibition in vivo at 25 mg/kg [2, 3]: 50%
CCCCCCCCCCCCNC(=O)ON=C(C1=C(Br)C(=O)C(C)(C)O1)c1ccccc1 [Example 12, 2,2-Dimethyl-4-bromo-5-[[[[(dodecylamino)carbonyl]oxy]imino]phenylmethyl]3(2H)-furanone] | 5.64 | 69% | –
CCCCCCCCCCCCNC(=O)ON=C(C1=CC(=O)C(C)(C)O1)c1ccc(Cl)cc1 [Example 13] | 5.00 | 63% | –
CCCCCCCC/C=C/CCCCCCCCCNC(=O)ON=C(C1=CC(=O)C(C)(C)O1)c1ccccc1 [Example 5, 2,2-Dimethyl-5-[[[[[(E)-10-nonadecenylamino]carbonyl]oxy]imino]phenylmethyl]-3(2H)-furanone] | 4.60 | – | inhibition in vivo at 25 mg/kg [2, 3]: 39%
CCCCCCCCNC(=O)ON=C(C1=CC(=O)C(C)(C2CCCCC2)O1)c1ccccc1 (centres unmarked) [Example 7, 2-Cyclohexyl-2-methyl-5-[[[[(octylamino)carbonyl]oxy]imino]phenylmethyl]-3(2H)-furanone] | 5.72 | 47% | –
O=C(NC1CCCCC1)ON=C(c1ccccc1)c1ccccn1 [Example 14, Phenyl(2-pyridinyl)methanone O-[(cyclohexylamino)carbonyl]oxime] | 5.85 | 44% | –
CC1(C)CCC(NC(=O)ON=C(C2=CC(=O)C(C)(C)O2)c2ccccc2)CC1 [Example 3, 2,2-Dimethyl-5-[[[[[(4,4dimethylcyclohexyl)amino]carbonyl]oxy]imino]phenylmethyl]-3(2H)-furanone] | 7.00 | 44% | –
CCCCCCCCNC(=O)ON=C(c1ccc(OC)cc1)c1ccccn1 [Example 18, (4-Methoxyphenyl)(2-pyridinyl)methanone O-[(octylamino)carbonyl]oxime] | 5.68 | – | inhibition in vivo at 65 mg/kg [2, 3]: 45%
CCCCCCCCNC(=O)ON=C(CCc1ccccc1)C1=CC(=O)C(C)(C)O1 [Example 11] | 5.82 | 57% | –
CCCCCCCCNC(=O)ON=C(c1ccccn1)c1ccccn1 [Example 16, Di(2-pyridinyl)methanone O-[(octylamino)carbonyl]oxime] | 5.56 | – | inhibition in vivo at 50 mg/kg [2, 3]: 39%
CCCCCCCCNC(=O)ON=C(C1=CC(=O)C(C)(c2ccccc2)O1)c1ccccc1 (centres unmarked) [Example 8] | 6.89 | 46% | –
CCCCCCCCNC(=O)ON=C(C1=CC(=O)C(C)(C)O1)c1ccccc1 [Example 1, 2,2-Dimethyl-5-[[[[(octylamino)carbonyl]oxy]imino]phenylmethyl]-3(2H)-furanone] | 5.72 | 39% | –
CCCCNC(=O)ON=C(c1ccc(N(C)C)cc1)c1ccccn1 [Example 20] | – | – | % Decrease ^14 C Chol. Absorption at 6 hr in normal rat ([2]; rat, in vivo): 51%
CCCCCCCCNC(=O)ON=C(c1ccc(F)cc1)c1ccccn1 [Example 17, (4-Fluorophenyl)(2-pyridinyl)methanone O-[(octylamino)carbonyl]oxime] | 6.36 | – | inhibition in vivo at 50 mg/kg [2, 3]: 57%
CCCCCCCCCCCCNC(=O)ON=C(C1=CC(=O)C(C)(C)O1)c1ccccc1 [Example 2, 2,2-Dimethyl-5-[[[[(dodecylamino)carbonyl]oxy]imino]phenylmethyl]-3(2H)-furanone] | 6.24 | 76% | –
CCCCCCCC/C=C\CCCCCCCCNC(=O)ON=C(C1=CC(=O)C(C)(C)O1)c1ccccc1 [Example 4, 2,2-Dimethyl-5-[[[[[(Z)-9-octadecenylamino]carbonyl]oxy]imino]phenylmethyl]-3(2H)-furanone] | – | 74% | pIC50 ([1]; read-out: IC50 against CEH): 5.27
